17 compounds from PubChem BioAssay (NCI) can be followed below.

Test systems include SK-MEL-28 melanoma; K-562 leukemia; U251 CNS; M14 melanoma; LOX IMVI melanoma; KM12 colon; OVCAR-5 ovarian; OVCAR-8 ovarian; MDA-MB-435; SF-539 CNS; A498 renal.
Assay in all cases: growth of human tumour cells (NCI), 48 h

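Five concentrations, 48 hours, 96-well plates. TGI marks complete inhibition of growth.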

Regarding `C/C(=C1\N=C(c2ccccc2)OC1=O)c1ccccc1`, the TGI in the test on SK-MEL-28 melanoma, with K-562 leukemia, with U251 CNS, with M14 melanoma, in the test on LOX IMVI melanoma and in the test with KM12 colon was over 100 µM each time. In addition, the TGI in the test on OVCAR-5 ovarian, in the test on OVCAR-8 ovarian, in the test on MDA-MB-435, with SF-539 CNS and in the test on A498 renal was over 100 µM each time.
`N#Cc1c(-c2ccc([N+](=O)[O-])cc2)c(C#N)c(=O)n(NS(=O)(=O)c2ccccc2)c1S`: the TGI in the test on SK-MEL-28 melanoma was over 100 µM; with K-562 leukemia it was 77.4 µM; in the test with U251 CNS it was over 100 µM; in the test with M14 melanoma it was over 100 µM; in the test with LOX IMVI melanoma it was 38 µM; in the test with KM12 colon it was over 100 µM. The TGI in the test on OVCAR-5 ovarian was over 100 µM; in the test on OVCAR-8 ovarian, over 100 µM; with MDA-MB-435 it was 81.9 µM; with SF-539 CNS, 46.1 µM; in the test with A498 renal, over 100 µM.
As to `C=C(NC(=O)C(=C)NC(=O)c1ccc2c(n1)-c1coc(n1)C(=C)NC(=O)C(=C)NC(=O)c1nc(oc1C)C(=C)NC(=O)C(C(C)(C)O)NC(=O)C(=C)NC(=O)c1coc(n1)/C(=C/C)NC(=O)[C@H]([C@@H](C)O)NC(=O)c1csc-2n1)C(N)=O` (some centres not stated), the TGI with SK-MEL-28 melanoma, with K-562 leukemia, in the test on U251 CNS, with M14 melanoma, in the test on LOX IMVI melanoma and in the test with KM12 colon was over 87.5 µM each time. Besides, the TGI in the test on OVCAR-5 ovarian, in the test with OVCAR-8 ovarian, in the test on MDA-MB-435, in the test on SF-539 CNS and in the test on A498 renal was over 87.5 µM in each case.
`CC(=O)NC1C(OCc2ccccc2)OC(CO)C(O)C1OC(C)C(=O)N[C@@H](C)C(=O)N[C@H](CCC(=O)NCCNCCNc1c2ccccc2nc2cccc([N+](=O)[O-])c12)C(N)=O` (some centres not stated): the TGI was 0.723 µM in the test on SK-MEL-28 melanoma; over 100 µM in the test on K-562 leukemia; 3.41 µM in the test on U251 CNS; 0.436 µM with M14 melanoma; 0.534 µM in the test with LOX IMVI melanoma; 0.352 µM in the test with KM12 colon. In addition, the TGI in the test with OVCAR-5 ovarian worked out at 5.19 µM; with OVCAR-8 ovarian, 0.457 µM; in the test on MDA-MB-435, 0.235 µM; in the test on SF-539 CNS, 0.991 µM; in the test with A498 renal, 0.32 µM.
As for `COP(=O)(OC)OCN(C)CC/C=C(\C)CC/C=C(\C)CCC=C(C)C`, the TGI in the test with SK-MEL-28 melanoma was determined as 32.6 µM; in the test with K-562 leukemia, 20.6 µM; in the test on U251 CNS, 37.6 µM; with M14 melanoma it was 28 µM; in the test with LOX IMVI melanoma, 29.3 µM; in the test on KM12 colon, 30 µM. Also, the TGI with OVCAR-5 ovarian is 39.1 µM; with OVCAR-8 ovarian, 29.5 µM; in the test with MDA-MB-435, 40.2 µM; in the test with SF-539 CNS it was 30.3 µM; with A498 renal, over 100 µM.
`Clc1ccc2c(c1)N(CCCN1CCCC13CCCCC3)c1ccccc1S2`: the TGI in the test on SK-MEL-28 melanoma turned out to be 30.3 µM; in the test with K-562 leukemia, 21.6 µM; in the test on U251 CNS, 23.6 µM; in the test on M14 melanoma, 27.3 µM; with LOX IMVI melanoma it was 26.5 µM; in the test on KM12 colon, 27.7 µM. Moreover, the TGI in the test with OVCAR-5 ovarian was found to be 36.3 µM; in the test on OVCAR-8 ovarian, 42.6 µM; with MDA-MB-435, 27.4 µM; in the test on SF-539 CNS, 33.4 µM; in the test on A498 renal it was 33.2 µM.
In the case of `O=P1(N(CCCl)CCCl)Oc2ccc(Cl)cc2C(C(Cl)(Cl)Cl)c2cc(Cl)ccc2O1` (configuration not stated), the TGI with SK-MEL-28 melanoma is over 100 µM; in the test with K-562 leukemia, over 100 µM; in the test on U251 CNS, 29.2 µM; in the test with M14 melanoma, 98.4 µM; in the test on LOX IMVI melanoma it was 28.7 µM; with KM12 colon it was 33.4 µM. Also, the TGI in the test with OVCAR-5 ovarian was over 100 µM; in the test with OVCAR-8 ovarian, over 100 µM; in the test on MDA-MB-435, 71.8 µM; in the test on SF-539 CNS, 29.9 µM; with A498 renal, over 100 µM.
In the case of `CCOP(=O)(/C=C/n1cc(C)c(=O)[nH]c1=O)OCC`, the TGI in the test with SK-MEL-28 melanoma, with K-562 leukemia, in the test on U251 CNS, in the test with M14 melanoma, in the test with LOX IMVI melanoma and with KM12 colon was over 100 µM in each case. For the same compound, the TGI in the test on OVCAR-5 ovarian, with OVCAR-8 ovarian, in the test with MDA-MB-435, in the test with SF-539 CNS and with A498 renal was over 100 µM each time.
In the case of `O=CCCCCCOCc1ccccc1`, the TGI in the test on SK-MEL-28 melanoma was over 100 µM; in the test with K-562 leukemia, over 31.7 µM; with U251 CNS, over 100 µM; with M14 melanoma, over 100 µM; in the test on LOX IMVI melanoma, 34.9 µM; with KM12 colon it was over 100 µM. Besides, the TGI with OVCAR-5 ovarian, with OVCAR-8 ovarian, in the test on MDA-MB-435, in the test with SF-539 CNS and in the test on A498 renal was over 100 µM in each case.
With `Nc1c(C(=O)c2ccc(Cl)c(Cl)c2)[nH]c(NCc2ccccc2)c1C(=S)Nc1ccccc1`, the TGI in the test with SK-MEL-28 melanoma is 18.9 µM; in the test on K-562 leukemia, over 100 µM; in the test with U251 CNS it was 15.7 µM; in the test on M14 melanoma, 12.6 µM; with LOX IMVI melanoma it was 4.53 µM; with KM12 colon, 10.5 µM. Moreover, the TGI was determined as 28.2 µM in the test with OVCAR-5 ovarian; 30.2 µM in the test on OVCAR-8 ovarian; 18.3 µM with MDA-MB-435; 6.47 µM in the test on SF-539 CNS; 31.5 µM in the test with A498 renal.
Regarding `CC(C)(CO[C@H]1C[C@H]2CC[C@@]1(C)C2(C)C)[N+](=O)[O-]`, the TGI was determined as 34.9 µM in the test on SK-MEL-28 melanoma; 35 µM with K-562 leukemia; 31.5 µM in the test on U251 CNS; 27.1 µM in the test on M14 melanoma; 35.1 µM in the test on LOX IMVI melanoma; 32.4 µM with KM12 colon. The TGI with OVCAR-5 ovarian was found to be 33.9 µM; with OVCAR-8 ovarian, 56.8 µM; in the test with MDA-MB-435 it was 34 µM; with SF-539 CNS it was 32.1 µM; in the test on A498 renal, 51.8 µM.
Regarding `COC(=N)C1(C#N)NC(c2ccsc2)C(C#N)(C#N)NC1c1ccsc1` (configuration not stated), the TGI with SK-MEL-28 melanoma, in the test with K-562 leukemia, in the test on U251 CNS, with M14 melanoma, in the test with LOX IMVI melanoma and in the test on KM12 colon was over 100 µM each time. Further, the TGI in the test on OVCAR-5 ovarian, with OVCAR-8 ovarian, with MDA-MB-435, with SF-539 CNS and with A498 renal was over 100 µM each time.
Turning to `NC(=O)[C@H](Cc1ccc(O)cc1)Nc1c(O)c2c(c(O)c1Cl)C(=O)C=CC2=O`, the TGI is 4.64 µM with SK-MEL-28 melanoma; 5.37 µM with K-562 leukemia; over 8.11 µM in the test on U251 CNS; over 7 µM with M14 melanoma; over 4.65 µM in the test on LOX IMVI melanoma; over 6.81 µM in the test with KM12 colon. Further, the TGI in the test on OVCAR-5 ovarian is over 10 µM; in the test with OVCAR-8 ovarian, over 6.26 µM; in the test on MDA-MB-435, 4 µM; with SF-539 CNS it was 5.28 µM; with A498 renal, over 10 µM.
As to `CCN1CC2(C)CCC(OC)C34C5CC6CCC(O)(C5C(=O)O6)C(C(O)C23)C14` (configuration not stated), the TGI in the test on SK-MEL-28 melanoma, in the test on K-562 leukemia, with U251 CNS, in the test on M14 melanoma, in the test with LOX IMVI melanoma and with KM12 colon was over 100 µM in each case. Further, the TGI with OVCAR-5 ovarian, in the test on OVCAR-8 ovarian, in the test with MDA-MB-435, in the test on SF-539 CNS and with A498 renal was over 100 µM in each case.
As for `C=C1c2nc3ccccc3n2C=C(c2ccc(C)cc2)N1c1ccc(OC)cc1`, the TGI in the test with SK-MEL-28 melanoma is over 100 µM; with K-562 leukemia, over 100 µM; with U251 CNS it was over 100 µM; in the test with M14 melanoma, over 100 µM; in the test with LOX IMVI melanoma it was over 100 µM; in the test with KM12 colon, 63.3 µM. Moreover, the TGI with OVCAR-5 ovarian is over 100 µM; in the test with OVCAR-8 ovarian, over 100 µM; in the test on MDA-MB-435, 49.2 µM; with SF-539 CNS it was over 100 µM; with A498 renal, over 100 µM.
As to `Cn1c(=O)c2c(nc3[nH]c(=O)c(Br)cn32)n(C)c1=O`, the TGI in the test with SK-MEL-28 melanoma, with K-562 leukemia, with U251 CNS, with M14 melanoma, in the test with LOX IMVI melanoma and with KM12 colon was over 100 µM each time. Moreover, the TGI in the test with OVCAR-5 ovarian, with OVCAR-8 ovarian, with MDA-MB-435, in the test on SF-539 CNS and in the test on A498 renal was over 100 µM throughout.
Take `O=C(O)c1c(CC(Cc2ccc3c(c2)CCC3)C(=O)O)ccc2c1CCC2` (configuration not stated): the TGI in the test with SK-MEL-28 melanoma, in the test with K-562 leukemia, in the test on U251 CNS, in the test with M14 melanoma, with LOX IMVI melanoma and with KM12 colon was over 100 µM each time. Also, the TGI in the test with OVCAR-5 ovarian, in the test on OVCAR-8 ovarian, in the test with MDA-MB-435, in the test on SF-539 CNS and in the test on A498 renal was over 100 µM in each case.
